Experimental data from US4495195A, “Xanthine oxidase inhibiting 3(5)-phenyl-substituted-5(3)-pyrazole-carboxylic acid derivatives, compositions, and methods of use” (Eli Lilly and Company, priority 1982, dated 1985).
Where two headings read alike, the source gives them in different places.

Key:
xanthine oxidase [1] = target: T1, xanthine oxidase (Bos taurus, UniProt P80457); experiment: in vitro xanthine oxidase assay (rate of uric acid formation from xanthine); assay type: biochemical
T1 construct: purchased Sigma Chemical Company, St. Louis, Missouri
T1 sequence (P80457 whole entry): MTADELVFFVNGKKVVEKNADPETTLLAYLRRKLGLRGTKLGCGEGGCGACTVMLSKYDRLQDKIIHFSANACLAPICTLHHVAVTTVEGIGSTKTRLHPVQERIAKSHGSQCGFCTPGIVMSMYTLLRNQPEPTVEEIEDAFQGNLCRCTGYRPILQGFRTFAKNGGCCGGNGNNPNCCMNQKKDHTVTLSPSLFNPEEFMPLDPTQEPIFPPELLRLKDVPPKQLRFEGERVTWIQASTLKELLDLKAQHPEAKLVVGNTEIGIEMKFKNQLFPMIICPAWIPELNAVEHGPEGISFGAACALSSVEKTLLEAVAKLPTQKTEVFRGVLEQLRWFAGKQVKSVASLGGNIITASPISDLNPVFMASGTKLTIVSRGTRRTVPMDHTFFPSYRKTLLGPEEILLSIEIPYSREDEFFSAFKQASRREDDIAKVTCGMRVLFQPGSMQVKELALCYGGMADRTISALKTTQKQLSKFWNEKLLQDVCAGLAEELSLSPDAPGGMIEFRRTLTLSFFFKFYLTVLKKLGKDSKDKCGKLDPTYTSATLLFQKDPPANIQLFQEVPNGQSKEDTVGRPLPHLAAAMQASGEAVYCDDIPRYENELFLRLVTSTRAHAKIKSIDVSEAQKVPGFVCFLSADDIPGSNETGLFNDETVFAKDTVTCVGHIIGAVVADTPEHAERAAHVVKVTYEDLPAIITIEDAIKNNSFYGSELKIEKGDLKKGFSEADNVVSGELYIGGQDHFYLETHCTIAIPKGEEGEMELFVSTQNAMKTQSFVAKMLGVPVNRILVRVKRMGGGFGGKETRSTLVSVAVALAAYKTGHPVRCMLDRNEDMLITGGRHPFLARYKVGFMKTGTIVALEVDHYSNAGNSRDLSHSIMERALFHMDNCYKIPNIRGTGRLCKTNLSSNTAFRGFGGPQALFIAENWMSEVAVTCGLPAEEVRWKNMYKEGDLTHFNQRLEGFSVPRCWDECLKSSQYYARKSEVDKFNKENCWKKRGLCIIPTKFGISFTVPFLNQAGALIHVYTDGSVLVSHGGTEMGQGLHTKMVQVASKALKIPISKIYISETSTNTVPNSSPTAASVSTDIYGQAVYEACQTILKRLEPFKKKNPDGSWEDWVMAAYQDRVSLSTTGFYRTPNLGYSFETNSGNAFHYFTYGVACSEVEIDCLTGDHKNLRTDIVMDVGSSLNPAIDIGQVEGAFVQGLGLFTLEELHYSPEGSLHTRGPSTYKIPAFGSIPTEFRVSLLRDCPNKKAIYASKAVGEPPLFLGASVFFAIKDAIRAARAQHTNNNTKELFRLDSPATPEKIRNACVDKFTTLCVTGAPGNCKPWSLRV
Protocol: Xanthine oxidase activity was measured at room temperature by the rate of uric acid formation from xanthine substrate. In a total volume of 1 ml., the incubation mixture contained 50 micromoles of potassium phosphate buffer at pH 7.4, 0.05 micromoles of xanthine and 0.01 units of enzyme preparation (chromatographically purified milk xanthine oxidase, grade III, obtained from Sigma Chemical Company, St. Louis, Missouri). The absorbence change at 292 nm was recored by a Gilford recording spectrophotometer and the uric acid formed was calculated using an extinction coefficient of 12 mM^-1 cm^-1 at 292 nm.

[2] = tested on: plasma level of uric acid; experiment: in vivo lowering of plasma uric acid, oral, rats; conditions: Rattus norvegicus, read-out: ED50 (dose which reduces plasma level of uric acid by one-half)
Protocol: (§1) Compounds corresponding to formulas Ia, Ib and Ic above are active in vivo in lowering plasma uric acid levels. […] The first method, the spectrofluorometric method, was modified from the precedure of Sumi et al., Clinica. Chimica. Acta., 73, 233 (1976). Rats were sacrificed by decapitation and their blood collected into vacutainer tubes containing heparin via heparinized glass funnels. The blood was centrifuged for 8 minutes at 4000 rpm after which time the plasma was separated and diluted 1:1 with water. Plasma protein was precipitated by addition of acetic acid to a final concentration of 0.007 molar and boiling the resulting mixture for 5 minutes in Sorval tubes. Clear deprotein plasma was obtained after centrifugation of the resulting plasma for 30 minutes at 25,000 rpm. Uric acid was assayed as follows: 0.2 ml. aliquots of the clear deproteinized plasma were mixed with 120 λ of uricase (0.045 mu/ml.) and incubated for 30 minutes at 27° C. 1.0 ml. of a p-hydroxyphenylacetic acid buffer was added. Samples obtained from feeding rats or dogs serial doses of the compound under test were incubated with the above buffer solution for 30 minutes at 27° C. Fluoroescence of the solution was measured in quartz tubes using an Aminco Bowman-Spectrofluorimeter having excitation of 321 nm and emission at 412 nm. Five uric acid standards from 6-30 micromolar were assayed for each test and each standard yielded a linear curve.
The second method is called the HPLC-EC Detection method. In this procedure, blood plasma was collected from rats as described above and from dogs in heparinized syringes from the cefalic vein in the forearm. The blood plasma was centrifuged with Sure-Sep to separate plasma. Deproteinized plasma was prepared in each instance by first diluting one volume of plasma with one volume of an internal standard solution, 4 mcg./ml., and then addition of two volumes of 5% trichloroacetic acid. Standards were added to control plasma in the range of 0-8 mcg./ml. of uric acid. Samples obtained by feeding graded doses of the drug under test to dogs or rats were mixed for 30 seconds and then centrifuged in an Eppendorf microcentrifuge. Supernates were diluted 1:10 in column buffer and assayed for uric acid. Internal standards used were 3-methyluric acid for the rat samples and 3,9-dimethyluric acid for dog samples. Assays were performed as follows using a Bioanlaytic Systems Inc. LC-44 analyser and an electrochemical detector system based on an Altex model 110 pump coupled with a CP-O carbon paste electrodetector. […] Uric acid levels were then calculated from peak areas by computer analysis. […]

oral LD50 in mice = conditions: mouse, in vivo; for selectivity ratio: LD50 oral mice / ED50 oral rats; for LD50: oral, mice, with standard error, read-out: LD50 (dose which kills one-half of the animals)
From the text: The compounds represented by the above formula are also relatively non-toxic. In column 3 of Table IV are listed the oral LD50 for mice in mg. per kg. (with standard error) for each of the compounds of column 1 (dose which kills one-half of the animals). Finally, column 4 in Table IV gives the ratio of LD50 to ED50. It will be seen that the ratio of the LD50 to the ED50 is quite high, giving a substantial margin of safety for using the compounds of formulas Ia, Ib, and Ic in treating gout in mammals, particularly humans.

xanthine oxidase [3] = experiment: oral administration in rats, in vivo inhibition of xanthine oxidase (Table V); parameters: species or system rat
Protocol: as §1, with “Samples obtained from feeding rats or dogs serial doses of the compound under test were incubated with the above buffer solution for 30 minutes at 27° C.” left out, “Five uric acid standards from 6-30 micromolar were assayed for each test and each standard yielded a linear curve.” left out
The second method is called the HPLC-EC Detection method. […] Uric acid levels were then calculated from peak areas by computer analysis. […]

[4] = milk xanthine oxidase, 0.05 micromoles xanthine in 1 ml, pH 7.4, room temperature, read-out: I50 (concentration of drug which inhibits 50% of the oxidation of xanthine to uric acid) (converted)

With `Cn1nc(-c2cccc(Br)c2)cc1C(=O)O` [R=3-Br, R^1=H, 1-Methyl-3-(3-bromophenyl)pyrazole-5-carboxylic acid] the IC50 (xanthine oxidase [1]; [4]) was 0.0711 µM.
`Cn1nc(-c2cccc(C(F)(F)F)c2)cc1C(=O)O` [R=3-CF3, R^1=H, 1-methyl-3-(3-trifluoromethylphenyl)pyrazole-5-carboxylic acid] gave an IC50 (xanthine oxidase [1]; [4]) of 0.0259 µM, an ED50 [2] of 30 mg/kg and a selectivity ratio (oral LD50 in mice) of 19.5. It also gave an LD50 (oral LD50 in mice) of 585 ± 45 mg/kg.
`O=C(O)c1cc(-c2cccc(C(F)(F)F)c2)n[nH]1` [R=3-CF3, X=H, 3(5)-(3-trifluoromethylphenyl)pyrazole-5(3)-carboxylic acid] gave an IC50 (xanthine oxidase [1]; [4]) of 0.39 µM.
In the case of `O=C(O)c1[nH]nc(-c2cccc(C(F)(F)F)c2)c1O` [R=3-CF3, X=OH, 3(5)-(3-Trifluoromethylphenyl)-4-hydroxypyrazole-5(3)-carboxylic acid], the IC50 (xanthine oxidase [1]; [4]) is reported as 0.0448 µM.
With `Cc1cccc(-c2cc(C(=O)O)n(C)n2)c1` [R=3-CH3, R^1=H, 1-Methyl-3-(m-tolyl)pyrazole-5-carboxylic acid] the IC50 (xanthine oxidase [1]; [4]) was 1.39 µM.
With `Cn1nc(-c2ccc(Cl)c(Cl)c2)cc1C(=O)O` [R=3-Cl, R^1=4-Cl, 1-Methyl-3-(3,4-dichlorophenyl)pyrazole-5-carboxylic acid] the IC50 (xanthine oxidase [1]; [4]) was 0.177 µM.
Molecule `Cn1nc(-c2cccc(Cl)c2)cc1C(=O)O` [R=3-Cl, R^1=H, 1-Methyl-3-(3-chlorophenyl)pyrazole-5-carboxylic acid] has an IC50 (xanthine oxidase [1]; [4]) of 0.304 µM.
For `COc1ccc(-c2cc(C(=O)O)n(C)n2)cc1OC` [R=3-OCH3, R^1=4-OCH3, 1-Methyl-3-(3,4-dimethyoxyphenyl)pyrazole-5-carboxylic acid], the IC50 (xanthine oxidase [1]; [4]) was 0.244 µM.
Work on `Cn1nc(-c2ccc(Br)cc2)cc1C(=O)O` [R=4-Br, R^1=H, 1-methyl-3-(4-bromophenyl)pyrazole-5-carboxylic acid] yielded an IC50 (xanthine oxidase [1]; [4]) of 0.416 µM.
`Cn1nc(-c2ccc(C(F)(F)F)cc2)cc1C(=O)O` [R=4-CF3, R^1=H, 1-methyl-3-(4-trifluoromethylphenyl)pyrazole-5-carboxylic acid] gave an IC50 (xanthine oxidase [1]; [4]) of 0.426 µM.
Molecule `Cn1nc(-c2ccc(Cl)cc2)cc1C(=O)O` [R=4-Cl, R^1=H, 1-Methyl-3-(4-chlorophenyl)pyrazole-5-carboxylic acid] has an IC50 (xanthine oxidase [1]; [4]) of 1.69 µM.
Work on `O=C(O)c1[nH]nc(-c2ccc(F)cc2)c1O` [R=4-F, X=OH] yielded an IC50 (xanthine oxidase [1]; [4]) of 1.58 µM.
In the case of `COc1ccc(-c2cc(C(=O)O)n(C)n2)cc1` [R=4-OCH3, R^1=H, 1-Methyl-3-(4-methoxyphenyl)pyrazole-5-carboxylic acid], the IC50 (xanthine oxidase [1]; [4]) is reported as 0.31 µM.
In the case of `COc1ccc(-c2n[nH]c(C(=O)O)c2O)cc1` [R=4-OMe, X=OH], the IC50 (xanthine oxidase [1]; [4]) is reported as 0.726 µM.
`Cn1nc(-c2cccc(Br)c2)c(Cl)c1C(=O)O` [R=Br, X=Cl, 1-Methyl-3-(3-bromophenyl)-4-chloropyrazole-5-carboxylic acid] gave an IC50 (xanthine oxidase [1]; [4]) of 0.0665 µM.
`Cn1nc(-c2cccc(C(F)(F)F)c2)c(Br)c1C(=O)O` [R=CF3, X=Br, 1-methyl-3-(3-trifluoromethylphenyl)-4-bromopyrazole-5-carboxylic acid] showed an IC50 (xanthine oxidase [1]; [4]) of 0.0573 µM, an ED50 [2] of 11 mg/kg and a selectivity ratio (oral LD50 in mice) of 27 to 45. For the same molecule, the LD50 (oral LD50 in mice) was 300 to 500 mg/kg.
Molecule `Cn1nc(-c2cccc(C(F)(F)F)c2)c(Cl)c1C(=O)O` [R=CF3, X=Cl, 1-Methyl-3-(3-trifluoromethylphenyl)-4-chloropyrazole-5-carboxylic acid] has an IC50 (xanthine oxidase [1]) of 0.046 µM, an ED50 [2] of 8.5 mg/kg and a selectivity ratio (oral LD50 in mice) of 38. It also gave an LD50 (oral LD50 in mice) of 322 ± 38 mg/kg.
In the case of `Cn1nc(-c2cccc(C(F)(F)F)c2)c(N)c1C(=O)O` [R=CF3, X=NH2, 1-Methyl-3-(3-trifluoromethylphenyl)-4-aminopyrazole-5-carboxylic acid], the IC50 (xanthine oxidase [1]; [4]) is reported as 0.0302 µM and the ED50 [2] is reported as 23 mg/kg.
Molecule `Cn1nc(-c2cccc(C(F)(F)F)c2)c(O)c1C(=O)O` [R=CF3, X=OH, 1-methyl-3-(3-trifluoromethylphenyl)-4-hydroxypyrazole-5-carboxylic acid] has an IC50 (xanthine oxidase [1]; [4]) of 0.028 µM.
In the case of `Cn1nc(-c2cccc(C(F)(F)F)c2)cc1C(N)=O` [R=NH2], the “Oral Percent Inhibition” value (xanthine oxidase [3]; dosage 90 mg·kg) is reported as 23.5%.
For `COC(=O)c1cc(-c2cccc(C(F)(F)F)c2)nn1C` [R=OCH3, methyl 1-methyl-3-(3-trifluoromethylphenyl)pyrazole-5-carboxylate], the “Oral Percent Inhibition” value (xanthine oxidase [3]; dosage 24 mg·kg) was 50%.
